Laboratory results taken from patent US20260207602A1, “EGFR INHIBITORS” (Blueprint Medicines Corporation, priority 2022, published 2026).

How the values were obtained:
EGFR L858R = molecular target: T1, EGFR L858R (Homo sapiens, UniProt P00533, L858R); test: Biochemical EGFR inhibition assay (Caliper mobility shift), EGFR L858R; conditions: biochemical Caliper mobility shift assay, EGFR L858R enzyme; read-out: Enz EGFR L858R IC50
T1 construct: purchased SignalChem E10-122BG
Method in brief: (§1)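 Apparent IC50 from Caliper separation of phospho-peptide from substrate. Conditions: 2.5 µM 5-FAM peptide, 1.0 mM ATP or ATP Km, pH 7.5 HEPES buffer, room temperature, 10–20% conversion, EDTA stop.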

EGFR (d746-750) = molecular target: T2, EGFR (d746-750) (Homo sapiens, UniProt P00533, DEL746-750); test: Biochemical EGFR inhibition assay (Caliper mobility shift), EGFR (d746-750); conditions: biochemical Caliper mobility shift assay, EGFR Exon 19-del enzyme; read-out: Enz EGFR Exon 19-del IC50
T2 construct: purchased SignalChem E10-122JG
Method in brief: as §1

[1] = molecular target: intracellular phosphorylation of EGFR (Tyr1068) in PC-9 cells (Homo sapiens, UniProt P00533, DEL746-750); test: PC-9 pEGFR AlphaLISA assay; assay type: cell-based; conditions: 4 hours incubation, read-out: Phos EGFR PC9 IC50
Method in brief: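 PC-9 cells (EGFR del746-750) in phenol-free DMEM/10% FBS, adhered overnight, then exposed to 10-point 4-fold compound dilutions for 4 h at 37 °C. Lysates assayed for pEGFR Tyr1068 by AlphaLISA SureFire Ultra; IC50 from percent pEGFR inhibition vs log concentration.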

T2 sequence (P00533 with tags, fused parts or gaps DEL746-750 limits assumed): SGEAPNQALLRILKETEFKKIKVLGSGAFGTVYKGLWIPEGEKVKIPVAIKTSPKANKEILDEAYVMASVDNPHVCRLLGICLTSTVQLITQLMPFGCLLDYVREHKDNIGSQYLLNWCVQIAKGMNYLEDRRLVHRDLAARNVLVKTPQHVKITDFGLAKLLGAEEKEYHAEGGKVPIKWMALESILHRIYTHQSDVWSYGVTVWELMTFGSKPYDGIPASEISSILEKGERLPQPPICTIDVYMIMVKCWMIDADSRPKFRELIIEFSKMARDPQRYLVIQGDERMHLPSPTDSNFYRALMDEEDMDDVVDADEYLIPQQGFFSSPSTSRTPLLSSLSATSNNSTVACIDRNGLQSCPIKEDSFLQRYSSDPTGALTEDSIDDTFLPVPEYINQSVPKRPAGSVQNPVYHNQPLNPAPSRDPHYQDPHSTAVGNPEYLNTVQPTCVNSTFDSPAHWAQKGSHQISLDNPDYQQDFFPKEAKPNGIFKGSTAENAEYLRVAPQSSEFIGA
T1 sequence (P00533 25-1210 L858R): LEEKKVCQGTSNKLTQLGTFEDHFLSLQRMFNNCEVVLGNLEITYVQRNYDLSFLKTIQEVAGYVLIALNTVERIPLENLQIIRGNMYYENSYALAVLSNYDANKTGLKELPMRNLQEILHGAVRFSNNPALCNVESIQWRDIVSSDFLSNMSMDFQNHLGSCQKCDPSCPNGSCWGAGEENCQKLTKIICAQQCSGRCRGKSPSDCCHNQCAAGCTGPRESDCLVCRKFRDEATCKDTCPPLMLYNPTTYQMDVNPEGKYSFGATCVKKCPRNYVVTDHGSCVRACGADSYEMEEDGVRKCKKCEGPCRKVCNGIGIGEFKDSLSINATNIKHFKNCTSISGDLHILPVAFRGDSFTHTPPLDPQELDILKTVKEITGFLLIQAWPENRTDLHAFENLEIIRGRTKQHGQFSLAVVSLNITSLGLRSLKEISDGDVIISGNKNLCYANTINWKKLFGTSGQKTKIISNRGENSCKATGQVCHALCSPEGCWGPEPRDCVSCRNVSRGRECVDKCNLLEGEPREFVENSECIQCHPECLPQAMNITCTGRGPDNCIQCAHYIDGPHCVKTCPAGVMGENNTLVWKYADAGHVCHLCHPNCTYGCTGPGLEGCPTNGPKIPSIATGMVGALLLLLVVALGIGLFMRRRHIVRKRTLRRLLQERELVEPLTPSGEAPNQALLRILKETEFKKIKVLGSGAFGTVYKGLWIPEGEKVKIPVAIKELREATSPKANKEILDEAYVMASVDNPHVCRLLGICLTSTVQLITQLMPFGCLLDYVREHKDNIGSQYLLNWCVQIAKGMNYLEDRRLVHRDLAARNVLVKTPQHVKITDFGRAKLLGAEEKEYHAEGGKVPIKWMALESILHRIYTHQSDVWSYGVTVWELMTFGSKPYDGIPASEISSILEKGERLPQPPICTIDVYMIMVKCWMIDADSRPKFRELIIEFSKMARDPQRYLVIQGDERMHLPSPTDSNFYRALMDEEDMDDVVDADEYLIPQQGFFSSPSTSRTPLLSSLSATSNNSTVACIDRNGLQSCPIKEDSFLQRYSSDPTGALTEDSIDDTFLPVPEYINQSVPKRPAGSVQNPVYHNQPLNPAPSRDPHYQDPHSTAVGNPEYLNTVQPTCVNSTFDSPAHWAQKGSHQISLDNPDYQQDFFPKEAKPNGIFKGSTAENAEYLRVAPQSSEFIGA
Chain of intracellular phosphorylation of EGFR (Tyr1068) in PC-9 cells (P00533 with tags, fused parts or gaps DEL746-750): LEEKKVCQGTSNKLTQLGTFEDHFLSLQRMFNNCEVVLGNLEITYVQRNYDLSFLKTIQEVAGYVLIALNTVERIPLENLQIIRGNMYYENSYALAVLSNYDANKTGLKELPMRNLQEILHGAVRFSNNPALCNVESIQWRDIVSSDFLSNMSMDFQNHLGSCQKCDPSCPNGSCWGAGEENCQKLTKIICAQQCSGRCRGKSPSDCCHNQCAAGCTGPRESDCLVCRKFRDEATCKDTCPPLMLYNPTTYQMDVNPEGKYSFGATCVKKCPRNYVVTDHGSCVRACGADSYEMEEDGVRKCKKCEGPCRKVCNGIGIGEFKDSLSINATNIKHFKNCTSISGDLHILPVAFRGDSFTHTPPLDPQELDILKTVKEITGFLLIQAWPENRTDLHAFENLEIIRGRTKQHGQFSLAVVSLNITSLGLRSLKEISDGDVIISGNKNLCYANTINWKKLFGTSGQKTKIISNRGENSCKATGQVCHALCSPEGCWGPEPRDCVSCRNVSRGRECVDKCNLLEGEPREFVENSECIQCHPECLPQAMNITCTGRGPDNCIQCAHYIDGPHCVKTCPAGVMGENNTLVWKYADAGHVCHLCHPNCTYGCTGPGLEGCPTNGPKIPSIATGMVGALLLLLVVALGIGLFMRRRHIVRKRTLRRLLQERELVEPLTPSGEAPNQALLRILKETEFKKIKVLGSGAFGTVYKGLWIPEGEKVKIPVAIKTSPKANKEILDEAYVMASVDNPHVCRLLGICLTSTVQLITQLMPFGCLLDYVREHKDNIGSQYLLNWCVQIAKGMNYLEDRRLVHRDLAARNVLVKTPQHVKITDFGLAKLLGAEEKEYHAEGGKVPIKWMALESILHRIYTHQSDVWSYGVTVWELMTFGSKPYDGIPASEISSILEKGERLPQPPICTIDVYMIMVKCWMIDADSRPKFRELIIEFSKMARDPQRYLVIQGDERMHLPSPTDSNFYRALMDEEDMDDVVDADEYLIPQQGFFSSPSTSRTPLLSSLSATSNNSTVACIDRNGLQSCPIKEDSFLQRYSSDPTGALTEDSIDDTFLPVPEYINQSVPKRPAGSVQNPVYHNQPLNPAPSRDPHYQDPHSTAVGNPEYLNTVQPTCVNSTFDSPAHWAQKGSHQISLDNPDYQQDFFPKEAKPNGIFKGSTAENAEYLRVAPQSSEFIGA

| SMILES | IC50 (EGFR L858R) [nM] | IC50 (EGFR (d746-750)) [nM] | IC50 [1] [nM] |
| --- | --- | --- | --- |
| COc1cn(C)nc1-c1cc(O[C@H](C)C2COC2)c2c(Nc3ccc4ncsc4c3)ncnc2c1 (single isomer, unassigned) [Example 120] | ≤ 10 | ≤ 10 | ≤ 10 |
| COCCN1CCC(Oc2cc(-c3cnn(C)c3)cc3ncnc(Nc4ccc5ncsc5c4F)c23)CC1 [Example 316, 7-fluoro-N-(5-((1-(2-methoxyethyl)piperidin-4-yl)oxy)-7-(1-methyl-1H-pyrazol-4-yl)quinazolin-4-yl)benzo[d]thiazol-6-amine] | 10.1 to 50 | ≤ 10 | 10.1 to 50 |
| C[C@H](CN(C)C)Oc1cc(N2CCOCC2)cc2ncnc(Nc3ccc4ncsc4c3F)c12 [Example 183, (R)-N-(5-((1-(dimethylamino)propan-2-yl)oxy)-7-morpholinoquinazolin-4-yl)-7-fluorobenzo[d]thiazol-6-amine] | 10.1 to 50 | ≤ 10 | 10.1 to 50 |
| COc1nn(C)cc1-c1cc(O[C@H]2CCN(C)C2=O)c2c(Nc3ccc4ncsc4c3)ncnc2c1 (single isomer, unassigned) [Example 74] | ≤ 10 | ≤ 10 | 10.1 to 50 |
| C[C@H](Oc1cc(-c2cnn(C)c2)cc2ncnc(Nc3ccc4ncsc4c3)c12)C(F)(F)F [Example 68, (S)-N-(7-(1-methyl-1H-pyrazol-4-yl)-5-((1,1,1-trifluoropropan-2-yl)oxy)quinazolin-4-yl)benzo[d]thiazol-6-amine] | ≤ 10 | ≤ 10 | ≤ 10 |
| C[C@H](CO)Oc1cc(-c2cnn(C)c2)cc2ncnc(Nc3ccc4ncsc4c3F)c12 (single isomer, unassigned) [Example 289] | ≤ 10 | ≤ 10 | ≤ 10 |
| CN(C)C(=O)COc1cc(-c2cnn(C)c2)cc2ncnc(Nc3ccc4ncsc4c3F)c12 [Example 274, 2-((4-((7-fluorobenzo[d]thiazol-6-yl)amino)-7-(1-methyl-1H-pyrazol-4-yl)quinazolin-5-yl)oxy)-N,N-dimethylacetamide] | ≤ 10 | ≤ 10 | ≤ 10 |
| CN1CC[C@H](Oc2cc(-c3cnn(C)c3)cc3ncnc(Nc4ccc5ncsc5c4)c23)[C@@H](F)C1 (single isomer, unassigned) [Example 344] | ≤ 10 | ≤ 10 | ≤ 10 |
| C[C@@H]1CN(c2cc(O[C@H](C)C3COC3)c3c(Nc4ccc5ncsc5c4F)ncnc3c2)CCN1 (single isomer, unassigned) [Example 101] | 10.1 to 50 | 10.1 to 50 | 10.1 to 50 |
| CN(C)C[C@@H](Oc1cc(-c2cnn(C)c2)cc2ncnc(Nc3ccc4ncsc4c3)c12)C(F)F (single isomer, unassigned) [Example 151] | ≤ 10 | ≤ 10 | ≤ 10 |
| CN(C)[C@H]1CC[C@@H]1Oc1cc(-c2cnn(C)c2)cc2ncnc(Nc3ccc4ncsc4c3)c12 (single isomer, unassigned) [Example 154] | ≤ 10 | ≤ 10 | ≤ 10 |
| C[C@@H]1CN(c2cc(O[C@@H](C)CN(C)C)c3c(Nc4ccc5ncsc5c4)ncnc3c2)C[C@H](C)O1 (single isomer, unassigned) [Example 149] | > 50.1 | 10.1 to 50 | 10.1 to 50 |
| CN(C)[C@H]1CC[C@H]1Oc1cc(-c2cnn(C)c2)cc2ncnc(Nc3ccc4ncsc4c3)c12 (racemic) [Example A50, N-(5-((1R,2S)-2-(dimethylamino)cyclobutoxy)-7-(1-methyl-1H-pyrazol-4-yl)quinazolin-4-yl)benzo[d]thiazol-6-amine] | ≤ 10 | ≤ 10 | ≤ 10 |
| Cn1cc(-c2cc(OC3(C)CC3)c3c(Nc4ccc5ncsc5c4)ncnc3c2)cn1 [Example 57, N-(7-(1-methyl-1H-pyrazol-4-yl)-5-(1-methylcyclopropoxy)quinazolin-4-yl)benzo[d]thiazol-6-amine] | ≤ 10 | ≤ 10 | ≤ 10 |
| Cn1cc(-c2cc(OC3CCN(CC(F)F)CC3)c3c(Nc4ccc5ncsc5c4F)ncnc3c2)cn1 [Example 310, N-(5-((1-(2,2-difluoroethyl)piperidin-4-yl)oxy)-7-(1-methyl-1H-pyrazol-4-yl)quinazolin-4-yl)-7-fluorobenzo[d]thiazol-6-amine] | ≤ 10 | ≤ 10 | ≤ 10 |
| Cn1cc(-c2cc(OC3CCOC3)c3c(Nc4ccc5ncsc5c4)ncnc3c2)cn1 (stereo not drawn) [Example 415, N-(7-(1-methyl-1H-pyrazol-4-yl)-5-((tetrahydrofuran-3-yl)oxy)quinazolin-4-yl)benzo[d]thiazol-6-amine] | ≤ 10 | ≤ 10 | 10.1 to 50 |
| COc1cc2ncnc(Nc3ccc4ncsc4c3)c2cc1-c1cnn(C2CCN(C)C[C@H]2F)c1 (single isomer, unassigned) [Example 167] | 10.1 to 50 | ≤ 10 | 10.1 to 50 |
| Cn1cc(-c2cc(OC3CC4(COC4)C3)c3c(Nc4ccc5ncsc5c4)ncnc3c2)cn1 [Example 38, N-(5-((2-oxaspiro[3.3]heptan-6-yl)oxy)-7-(1-methyl-1H-pyrazol-4-yl)quinazolin-4-yl)benzo[d]thiazol-6-amine] | ≤ 10 | ≤ 10 | ≤ 10 |
| Cn1cc(-c2cc(O[C@H]3CC[C@@H](O)CC3)c3c(Nc4ccc5ncsc5c4)ncnc3c2)cn1 [Example 11, (1s,4s)-4-((4-(benzo[d]thiazol-6-ylamino)-7-(1-methyl-1H-pyrazol-4-yl)quinazolin-5-yl)oxy)cyclohexan-1-ol] | ≤ 10 | ≤ 10 | ≤ 10 |
| C[C@@H](Oc1cc(-c2cnn(C)c2)cc2ncnc(Nc3ccc4ncsc4c3F)c12)C1CCOCC1 (single isomer, unassigned) [Example 111] | ≤ 10 | ≤ 10 | ≤ 10 |
| COc1cn(C)nc1-c1cc(O[C@H]2CCCN(C)C2)c2c(Nc3ccc4ncsc4c3)ncnc2c1 [Example 245, (S)-N-(7-(4-methoxy-1-methyl-1H-pyrazol-3-yl)-5-((1-methylpiperidin-3-yl)oxy)quinazolin-4-yl)benzo[d]thiazol-6-amine] | ≤ 10 | ≤ 10 | 10.1 to 50 |
| C[C@H](CN(C)C)Oc1cc(N2CC[C@H](C(C)(C)O)C2)cc2ncnc(Nc3ccc4ncsc4c3)c12 [Example 181, 2-((S)-1-(4-(benzo[d]thiazol-6-ylamino)-5-(((R)-1-(dimethylamino)propan-2-yl)oxy)quinazolin-7-yl)pyrrolidin-3-yl)propan-2-ol] | ≤ 10 | ≤ 10 | ≤ 10 |
| CC(C)Oc1cc(-c2cnn(C)c2)cc2ncnc(Nc3ccc4ncsc4c3)c12 [Example 405, N-(5-isopropoxy-7-(1-methyl-1H-pyrazol-4-yl)quinazolin-4-yl)benzo[d]thiazol-6-amine] | ≤ 10 | ≤ 10 | ≤ 10 |
| C[C@H](Oc1cc(N2CCN(C)C2=O)cc2ncnc(Nc3ccc4ncsc4c3)c12)C1COC1 (single isomer, unassigned) [Example 157] | ≤ 10 | ≤ 10 | ≤ 10 |
| Cn1cc(-c2cc(O[C@H]3CCOC3)c3c(Nc4ccc5ncsc5c4)ncnc3c2)cn1 [Example 36, (S)-N-(7-(1-methyl-1H-pyrazol-4-yl)-5-((tetrahydrofuran-3-yl)oxy)quinazolin-4-yl)benzo[d]thiazol-6-amine] | ≤ 10 | ≤ 10 | ≤ 10 |
| COc1cn(C)nc1-c1cc(O[C@H](C)C2COC2)c2c(Nc3ccc4ncsc4c3F)ncnc2c1 (single isomer, unassigned) [Example 80] | ≤ 10 | ≤ 10 | ≤ 10 |
| Cn1cc(-c2cc(O[C@H]3CC[C@H](O)CC3)c3c(Nc4ccc5ncsc5c4)ncnc3c2)cn1 [Example 5, (1r,4r)-4-((4-(benzo[d]thiazol-6-ylamino)-7-(1-methyl-1H-pyrazol-4-yl)quinazolin-5-yl)oxy)cyclohexan-1-ol] | ≤ 10 | ≤ 10 | ≤ 10 |
| C[C@@H](Oc1cc(-c2cnn(C)c2)cc2ncnc(Nc3ccc4ncsc4c3F)c12)[C@H]1CCCO1 [Example 113, 7-fluoro-N-(7-(1-methyl-1H-pyrazol-4-yl)-5-((R)-1-((R)-tetrahydrofuran-2-yl)ethoxy)quinazolin-4-yl)benzo[d]thiazol-6-amine] | ≤ 10 | ≤ 10 | ≤ 10 |
| CCC(=O)N1CCC(Oc2cc3c(Nc4ccc5ncsc5c4)ncnc3cc2OC)CC1 [Example 260, 1-(4-((4-(benzo[d]thiazol-6-ylamino)-7-methoxyquinazolin-6-yl)oxy)piperidin-1-yl)propan-1-one] | ≤ 10 | ≤ 10 | 10.1 to 50 |
| CN(C)C[C@H](Oc1cc(-c2cnn(C)c2)cc2ncnc(Nc3ccc4ncsc4c3)c12)C(F)(F)F (single isomer, unassigned) [Example 179] | > 50.1 | 10.1 to 50 | > 50.1 |
